Results on 19 compounds are retold here after US20190100517A1, “COMPOUNDS” (GlaxoSmithKline Intellectual Property Development Limited, priority 2015, published 2019).

One may read the IC50 as the concentration that inhibits the measured activity by half. A higher IC50 goes with weaker potency in that assay.

“And” between values parts separate entries of the source, which are not always exact repeats. Identical values can stand only once.

In the assay the target is human KMO (Homo sapiens, UniProt O15229). Kind of assay: KMO MS Rapidfire assay (RapidFire high-throughput mass spectrometry, Method 1 or Method 2).
human KMO, sequence (O15229 whole entry): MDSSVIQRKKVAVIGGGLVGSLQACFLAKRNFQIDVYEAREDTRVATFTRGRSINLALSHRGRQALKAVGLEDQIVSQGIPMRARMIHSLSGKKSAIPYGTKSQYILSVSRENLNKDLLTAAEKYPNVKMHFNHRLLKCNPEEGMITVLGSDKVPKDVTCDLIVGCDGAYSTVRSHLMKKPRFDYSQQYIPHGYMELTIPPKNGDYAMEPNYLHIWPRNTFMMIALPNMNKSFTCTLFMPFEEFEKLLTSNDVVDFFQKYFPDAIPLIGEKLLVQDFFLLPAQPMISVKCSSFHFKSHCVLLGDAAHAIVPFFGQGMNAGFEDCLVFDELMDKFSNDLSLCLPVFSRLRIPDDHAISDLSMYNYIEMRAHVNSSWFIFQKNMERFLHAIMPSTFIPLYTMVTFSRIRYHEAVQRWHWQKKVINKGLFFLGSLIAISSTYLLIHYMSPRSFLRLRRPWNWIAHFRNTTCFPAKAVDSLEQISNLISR
Experimental: KMO inhibition can be determined by MS Rapidfire assay performed on the human cloned enzyme as described herein.
pFastbac1 GST-KMO was transposed into the baculovirus genome using the BAC-to-BAC technology (Invitrogen) and bacmid DNA was prepared and transfected into Spodoptera frugiperda (Sf9) cells using Cellfectin II (Invitrogen).
A P1 virus stock was generated from a single clone and used to infect 3×1.5 L cultures of Sf9 cells in 3 L Corning Fernbach flasks. The Sf9 cells were grown in Hyclone SFX media (Thermo Scientific) to about 3×10^6 cells/ml and were infected at a nominal multiplicity of infection of 3. Cells were harvested after 48 hours and disrupted by blending in 50 mM HEPES, pH 7.4, 1 mM EDTA buffer containing protease inhibitors. A low speed spin (400 g) was used to remove cell debris, followed by a high speed spin (75 000 g) to pellet the membranes. The membranes were purified in a discontinuous sucrose density gradient by re-suspending in 10% (w/v) sucrose and layering over 40% (w/v) sucrose, both in the above buffer. This was centrifuged at 150 000 g and the purified membranes were taken from the interface, collected by centrifugation at 100 000 g, resuspended in buffer and aliquoted for storage at −80° C.
100 nL DMSO was dispensed into columns 6 and 18 for high and low controls, respectively, with prior inactivation of the enzyme in column 18 by pre-dispense of 30 μL of 0.5% (v/v) TFA.
Conditions for the assay of human KMO using isolated KMO-membranes were 50 mM HEPES, pH 7.5, 2 mM DTT, 1 mM EDTA, 100 μM CHAPS, 200 μM NADPH, 10 μM Kynurenine and 8 μg/ml KMO-membranes in a total reaction volume of 10 μL.
Assays were performed by initially dispensing 5 μL of a 2× Enzyme solution (16 μg/ml KMO-membranes in 50 mM HEPES, pH 7.5, 2 mM DTT, 2 mM EDTA, 200 μM CHAPS) into plates containing 100 nL compounds and incubating for 10 min at ambient temperature. Reactions were initiated by addition of 5 μL of 2× Substrate solution (400 μM NADPH, 20 μM Kynurenine in 50 mM HEPES, pH 7.5, 2 mM DTT) and incubated for 2 h at room temperature before quenching the reaction with 30 μL of 0.5% (v/v) TFA. Plates were centrifuged at 2500 rpm for 10 min before analysis. All additions were made using a Multidrop Combi dispenser (Thermo Fisher Scientific).
Quenched assay plates were transferred to a high-throughput RapidFire200 integrated autosampler/solid-phase extraction (SPE) system (Agilent Technologies, Wakefield, Mass.). […] Analytes were then eluted into the mass spectrometer, in a 3 s elution cycle, using 80% (v/v) acetonitrile/water containing 0.1% (v/v) formic acid, and the cartridge was then equilibrated by washing with water containing 0.1% (v/v) formic acid for 500 ms. This gave a total cycle time of 7 s, enabling analysis of a 384-well plate in approximately 45 min.
Both Kyn and 3-HK were detected using a Sciex AP14000 triple quadrupole mass spectrometer (Applied Biosystems, Concord, Ontario, Canada), equipped with an electrospray interface and operated in positive ion mode. […] The mass spectrometer used an ESI voltage of 5500 V and a source temperature of 600° C., with a dwell time of 50 ms for each transition.
Individual MRM transitions were saved as text files and the extracted ion chromatograms were integrated and processed using the RapidFire® peak integration software (version 3.6).
In the case of `CCC(Oc1cc2sc(=O)n(CCC(=O)O)c2cc1Cl)c1ncc(C)cn1` (single isomer, unassigned) [Example 5, 3-{5-chloro-6-[1-(5-methylpyrimidin-2-yl)propoxy]-2-oxo-2,3-dihydro-1,3-benzothiazol-3-yl}propanoic acid], the IC50 is at most 10 nM.
To `CCC(Oc1cc2sc(=O)n(CCC(=O)O)c2cc1Cl)c1ccc(C)cn1` (single isomer, unassigned) [Example 8, 3-{5-chloro-6-[1-(5-methylpyridin-2-yl)propoxy]-2-oxo-2,3-dihydro-1,3-benzothiazol-3-yl}propanoic acid] belongs at most 10 nM; to `CC[C@@H](Oc1cc2sc(=O)n(CCC(=O)O)c2cc1Cl)c1ccc(Cl)cn1` (single isomer, unassigned) [Example 9, 3-{5-chloro-6-[1-(5-chloropyridin-2-yl)propoxy]-2-oxo-2,3-dihydro-1,3-benzothhiazol-3-yl}propanoic acid], at most 10 nM; to `CCC(Oc1cc2sc(=O)n(CCC(=O)O)c2cc1Cl)c1ncc(Cl)cn1` (single isomer, unassigned) [Example 11, 3-{5-chloro-6-[1-(5-chloropyrimidin-2-yl)propoxy]-2-oxo-2,3-dihydro-1,3-benzothiazol-3-yl}propanoic acid], at most 10 nM.
The compound `CCC(Oc1cc2sc(=O)n(CCC(=O)O)c2cc1Cl)c1cccnn1` (single isomer, unassigned) [Example 14, 3-{5-chloro-2-oxo-6-[1-(pyridazin-3-yl)propoxy]-2,3-dihydro-1,3-benzothiazol-3-yl}propanoic acid] returned an IC50 of at most 10 nM.
Regarding `Cc1ccc(C(C)Oc2cc3sc(=O)n(CCC(=O)O)c3cc2Cl)nn1` (single isomer, unassigned) [Example 16, 3-{5-chloro-6-[1-(6-methylpyridazin-3-yl)ethoxy]-2-oxo-2,3-dihydro-1,3-benzothiazol-3-yl}propanoic acid], the concentration for half-maximal inhibition (IC50) was at most 10 nM.
To `Cc1cnc(C(C)Oc2cc3sc(=O)n(CCC(=O)O)c3cc2Cl)nc1` (single isomer, unassigned) [Example 18, 3-{5-chloro-6-[1-(5-methylpyrimidin-2-yl)ethoxy]-2-oxo-2,3-dihydro-1,3-benzothiazol-3-yl}propanoic acid] belongs at most 10 nM.
For `CCC(Oc1cc2sc(=O)n(CCC(=O)O)c2cc1Cl)c1ccccn1` (single isomer, unassigned) [Example 19, 3-{5-chloro-2-oxo-6-[1-(pyridin-2-yl)propoxy]-2,3-dihydro-1,3-benzothiazol-3-yl}propanoic acid], the IC50 was at most 10 nM.
To `CC(Oc1cc2sc(=O)n(CCC(=O)O)c2cc1Cl)c1ncc(Cl)cn1` (single isomer, unassigned) [Example 24, 3-{5-chloro-6-[1-(5-chloropyrimidin-2-yl)ethoxy]-2-oxo-2,3-dihydro-1,3-benzothiazol-3-yl}propanoic acid] belongs at most 10 nM.
The compound `CCc1ccc(C(C)Oc2cc3sc(=O)n(CCC(=O)O)c3cc2Cl)nc1` (single isomer, unassigned) [Example 25, 3-{5-chloro-6-[1-(5-ethylpyridin-2-yl)ethoxy]-2-oxo-2,3-dihydro-1,3-benzothiazol-3-yl}propanoic acid] displayed an IC50 of at most 10 nM.
Compound `CCC(Oc1cc2sc(=O)n(CCC(=O)O)c2cc1Cl)c1ncccn1` (single isomer, unassigned) [Example 29, 3-{5-chloro-2-oxo-6-[1-(pyrimidin-2-yl)propoxy]-2,3-dihydro-1,3-benzothiazol-3-yl}propanoic acid] yielded an IC50 of at most 10 nM.
With `CCC(Oc1cc2sc(=O)n(CCC(=O)O)c2cc1Cl)c1ccc(C)nn1` (single isomer, unassigned) [Example 32, 3-{5-chloro-6-[1-(6-methylpyridazin-3-yl)propoxy]-2-oxo-2,3-dihydro-1,3-benzothiazol-3-yl}propanoic acid], the IC50 is at most 10 nM.
With `C[C@@H](Oc1cc2sc(=O)n(CCC(=O)O)c2cc1Cl)c1ccc(Cl)cn1` [Example 1, 3-(5-chloro-6-[(R)-1-(5-chloropyridin-2-yl)ethoxy]-2-oxobenzo[d]thiazol-3(2H)-yl)propanoic acid], the IC50 is ≤ 10 nM and 1.26 nM.
`Cc1cnc(COc2cc3sc(=O)n(CCC(=O)O)c3cc2Cl)nc1` [Example 4, 3-{5-chloro-6-[(5-methylpyrimidin-2-yl)methoxy]-2-oxo-2,3-dihydro-1,3-benzothiazol-3-yl}propanoic acid] had an IC50 of at most 10 nM.
`O=C(O)CCn1c(=O)sc2cc(OCc3ccc(Cl)cn3)c(Cl)cc21` [Example 21, 3-{5-chloro-6-[(5-chloropyridin-2-yl)methoxy]-2-oxo-2,3-dihydro-1,3-benzothiazol-3-yl}propanoic acid] showed an IC50 of at most 10 nM.
To `Cc1ccc(COc2cc3sc(=O)n(CCC(=O)O)c3cc2Cl)nn1` [Example 22, 3-{5-chloro-6-[(6-methylpyridazin-3-yl)methoxy]-2-oxo-2,3-dihydro-1,3-benzothiazol-3-yl}propanoic acid] belongs at most 10 nM.
With `O=C(O)CCn1c(=O)sc2cc(OCc3ncc(Cl)cn3)c(Cl)cc21` [Example 27, 3-{5-chloro-6-[(5-chloropyrimidin-2-yl)methoxy]-2-oxo-2,3-dihydro-1,3-benzothiazol-3-yl}propanoic acid] the figure was at most 10 nM.
With `Cc1ccc(COc2cc3sc(=O)n(CCC(=O)O)c3cc2Cl)nc1` [Example 30, 3-{5-chloro-6-[(5-methylpyridin-2-yl)methoxy]-2-oxo-2,3-dihydro-1,3-benzothiazol-3-yl}propanoic acid] the figure was at most 10 nM.
With `Cc1ccc([C@@H](C)Oc2cc3sc(=O)n(CCC(=O)O)c3cc2Cl)nc1` [Example 33, 3-{5-chloro-6-[(1R)-1-(5-methylpyridin-2-yl)ethoxy]-2-oxo-2,3-dihydro-1,3-benzothiazol-3-yl}propanoic acid], the half-inhibitory concentration (IC50) was at most 10 nM.
